# How the values were obtained:
# Test in all cases: relative viability (nuclei count vs DMSO), 5 days (fraction); higher = more cells survive
# AZD8055 + Palbociclib = compound: COc1ccc(-c2ccc3c(N4CCOC[C@@H]4C)nc(N4CCOC[C@@H]4C)nc3n2)cc1CO [AZD8055] + CC(=O)c1c(C)c2cnc(Nc3ccc(N4CCNCC4)cn3)nc2n(C2CCCC2)c1=O [Palbociclib] (partner 0.5 µM)
# In short: (§1)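 A single step with final 0.05% Triton X-100, 1% formaldehyde and 1 ug/ml Hoechst fixed the cells and stained nuclei 5 days after treatment. Lung cancer cell lines in 1536-well plates had been treated by pin tool the day after seeding with one drug alone or a fixed anchor-drug dose plus five library-drug doses (not always all listed) in √10 steps, and nuclei were counted on 4× images. Relative viability is the ratio of nuclei in treated wells to nuclei in vehicle wells, taken as the median of duplicate plates.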
# AZD8055 + Bortezomib = compound: COc1ccc(-c2ccc3c(N4CCOC[C@@H]4C)nc(N4CCOC[C@@H]4C)nc3n2)cc1CO [AZD8055] + CC(C)C[C@H](NC(=O)[C@H](Cc1ccccc1)NC(=O)c1cnccn1)B(O)O [Bortezomib] (partner 0.002 µM)
# In short: as §1
# AZD8055 + Alpelisib = compound: COc1ccc(-c2ccc3c(N4CCOC[C@@H]4C)nc(N4CCOC[C@@H]4C)nc3n2)cc1CO [AZD8055] + Cc1nc(NC(=O)N2CCC[C@H]2C(N)=O)sc1-c1ccnc(C(C)(C)C(F)(F)F)c1 [Alpelisib] (partner 2 µM)
# In short: as §1
# AZD8055 + Dasatinib = compound: COc1ccc(-c2ccc3c(N4CCOC[C@@H]4C)nc(N4CCOC[C@@H]4C)nc3n2)cc1CO [AZD8055] + Cc1nc(Nc2ncc(C(=O)Nc3c(C)cccc3Cl)s2)cc(N2CCN(CCO)CC2)n1 [Dasatinib] (partner 0.075 µM)
# In short: as §1
Cell Line,relative viability (AZD8055 + Palbociclib; first compound 0.01 µM),relative viability (AZD8055 + Palbociclib; first compound 0.03162 µM),relative viability (AZD8055 + Palbociclib; first compound 0.1 µM),relative viability (AZD8055 + Palbociclib; first compound 0.3162 µM),relative viability (AZD8055 + Palbociclib; first compound 1 µM),relative viability (AZD8055 + Bortezomib; first compound 0.01 µM),relative viability (AZD8055 + Bortezomib; first compound 0.03162 µM),relative viability (AZD8055 + Bortezomib; first compound 0.1 µM),relative viability (AZD8055 + Bortezomib; first compound 0.3162 µM),relative viability (AZD8055 + Bortezomib; first compound 1 µM),relative viability (AZD8055 + Alpelisib; first compound 0.01 µM),relative viability (AZD8055 + Alpelisib; first compound 0.03162 µM),relative viability (AZD8055 + Alpelisib; first compound 0.1 µM),relative viability (AZD8055 + Alpelisib; first compound 0.3162 µM),relative viability (AZD8055 + Alpelisib; first compound 1 µM),relative viability (AZD8055 + Dasatinib; first compound 0.01 µM),relative viability (AZD8055 + Dasatinib; first compound 0.03162 µM),relative viability (AZD8055 + Dasatinib; first compound 0.1 µM),relative viability (AZD8055 + Dasatinib; first compound 0.3162 µM),relative viability (AZD8055 + Dasatinib; first compound 1 µM)
NCI-H441,0.178,0.185,0.179,0.144,0.14,0.502,0.577,0.396,0.168,0.186,0.678,0.42,0.444,0.331,0.315,0.538,0.608,0.474,0.281,0.245
NCI-H1793,0.216,0.218,0.163,0.22,0.211,,,,,,0.605,0.347,0.224,0.175,0.17,0.356,0.178,0.192,0.148,0.11
NCI-H23,0.439,0.367,0.295,0.193,0.187,1.3,0.881,0.791,0.27,0.271,0.668,0.604,0.406,0.268,0.269,0.874,0.732,0.572,0.276,0.27
HARA,0.223,0.234,0.216,0.255,0.171,1.12,1.23,1.11,0.725,0.54,0.786,0.744,0.376,0.222,0.252,0.282,0.294,0.221,0.155,0.221
NCI-H1792,0.677,0.585,0.417,0.359,0.307,0.93,0.771,0.827,0.173,0.189,0.447,0.482,0.361,0.131,0.108,0.844,0.667,0.583,0.321,0.237
NCI-H1703,,,,,,0.278,0.231,0.18,0.181,0.194,0.328,0.297,0.237,0.219,0.318,,,,,
NCI-H2342,0.489,0.537,0.458,0.473,0.426,,,,,,,,,,,0.316,0.288,0.268,0.293,0.304
CAL-12T,0.353,0.399,0.171,0.163,0.191,1.21,0.955,0.521,0.298,0.316,1.15,1.1,0.91,0.337,0.17,0.536,0.388,0.34,0.136,0.12
NCI-H727,0.621,0.635,0.572,0.573,0.51,0.976,0.824,0.698,0.388,0.275,0.564,0.435,0.356,0.255,0.269,0.444,0.464,0.41,0.28,0.312
NCI-H2085,0.493,0.448,0.386,0.37,0.3,1.11,0.859,0.705,0.407,0.357,0.896,0.758,0.575,0.382,0.372,0.205,0.201,0.199,0.217,0.195
NCI-H1395,0.604,0.526,0.547,0.44,0.45,,,,,,1.09,0.809,0.691,0.612,0.504,0.405,0.376,0.37,0.31,0.292
NCI-H1648,0.251,0.332,0.201,0.235,0.241,,,,,,,,,,,,,,,
NCI-H460,0.154,0.108,0.0839,0.0295,0.0277,1.25,0.79,0.44,0.195,0.0935,0.314,0.195,0.148,0.0795,0.0574,0.554,0.365,0.213,0.0862,0.0669
A549,,,,,,,,,,,0.524,0.373,0.223,0.0986,0.109,,,,,
IA-LM,,,,,,0.706,0.363,0.114,0.106,0.0977,0.749,0.485,0.212,0.0977,0.0895,,,,,
EKVX,0.466,0.365,0.278,0.211,0.173,0.942,1,0.832,0.499,0.356,0.94,0.834,0.587,0.34,0.401,0.443,0.615,0.419,0.317,0.263
ChaGo-K-1,1.01,0.87,0.864,0.728,0.652,1.03,1.12,1.09,0.87,0.647,,,,,,0.614,0.537,0.433,0.375,0.352

Cell Line,relative viability (AZD8055 + Palbociclib; first compound 0.01 µM),relative viability (AZD8055 + Palbociclib; first compound 0.03162 µM),relative viability (AZD8055 + Palbociclib; first compound 0.1 µM),relative viability (AZD8055 + Palbociclib; first compound 0.3162 µM),relative viability (AZD8055 + Palbociclib; first compound 1 µM),relative viability (AZD8055 + Bortezomib; first compound 0.01 µM),relative viability (AZD8055 + Bortezomib; first compound 0.03162 µM),relative viability (AZD8055 + Bortezomib; first compound 0.1 µM),relative viability (AZD8055 + Bortezomib; first compound 0.3162 µM),relative viability (AZD8055 + Bortezomib; first compound 1 µM),relative viability (AZD8055 + Alpelisib; first compound 0.01 µM),relative viability (AZD8055 + Alpelisib; first compound 0.03162 µM),relative viability (AZD8055 + Alpelisib; first compound 0.1 µM),relative viability (AZD8055 + Alpelisib; first compound 0.3162 µM),relative viability (AZD8055 + Alpelisib; first compound 1 µM),relative viability (AZD8055 + Dasatinib; first compound 0.01 µM),relative viability (AZD8055 + Dasatinib; first compound 0.03162 µM),relative viability (AZD8055 + Dasatinib; first compound 0.1 µM),relative viability (AZD8055 + Dasatinib; first compound 0.3162 µM),relative viability (AZD8055 + Dasatinib; first compound 1 µM)
NCI-H1755,0.42,0.44,0.388,0.368,0.359,0.98,0.879,0.75,0.459,0.359,0.879,0.744,0.607,0.378,0.363,0.414,0.32,0.262,0.263,0.249
NCI-H2228,0.696,0.477,0.388,0.168,0.166,0.877,0.507,0.315,0.198,0.29,0.621,0.297,0.222,0.19,0.272,0.429,0.358,0.136,0.144,0.171
NCI-H2087,0.212,0.198,0.159,0.113,0.141,0.783,0.992,0.796,0.441,0.252,0.996,0.924,0.809,0.44,0.381,0.957,0.637,0.792,0.292,0.216
LU99A,0.312,0.285,0.167,0.198,0.2,0.936,0.549,0.374,0.235,0.209,0.32,0.261,0.158,0.189,0.228,0.432,0.324,0.314,0.173,0.268
NCI-H1355,0.323,0.284,0.219,0.215,0.218,1.23,1.06,0.9,0.309,0.315,0.677,0.472,0.332,0.215,0.222,0.551,0.443,0.435,0.218,0.263
LK-2,0.387,0.399,0.347,0.17,0.102,,,,,,1.03,0.658,0.447,0.331,0.265,0.215,0.188,0.175,0.185,0.185
NCI-H1944,0.291,0.264,0.22,0.174,0.152,,,,,,0.716,0.63,0.543,0.366,0.25,0.187,0.174,0.185,0.166,0.152
NCI-H1650,0.317,0.323,0.254,0.18,0.205,0.299,0.182,0.215,0.208,0.214,,,,,,0.317,0.302,0.292,0.19,0.265
NCI-H596,,,,,,0.856,0.722,0.697,0.459,0.497,0.479,0.385,0.348,0.348,0.324,0.594,0.516,0.468,0.286,0.301
SK-MES-1,0.284,0.247,0.24,0.228,0.249,,,,,,0.856,0.64,0.542,0.303,0.269,0.404,0.337,0.256,0.213,0.179
NCI-H2170,0.331,0.314,0.233,0.173,0.143,,,,,,0.691,0.623,0.386,0.288,0.252,0.557,0.558,0.333,0.205,0.197
NCI-H358,0.143,0.137,0.135,0.115,0.101,,,,,,0.714,0.786,0.75,0.295,0.216,0.169,0.173,0.0957,0.0735,0.0998
NCI-H1563,,,,,,0.862,0.808,0.758,0.599,0.773,0.82,0.61,0.603,0.51,0.673,0.458,0.458,0.443,0.405,0.384
EBC-1,,,,,,0.485,0.502,0.301,0.236,0.224,0.827,0.421,0.373,0.265,0.259,,,,,
Calu-6,,,,,,1.04,0.917,0.824,0.489,0.457,0.911,0.69,0.524,0.399,0.339,,,,,
HCC-44,0.949,0.936,0.949,0.925,0.867,1.01,0.942,0.853,0.494,0.449,0.573,0.507,0.417,0.271,0.295,,,,,

# — the supplement of paper PMC10307832
